Data from PubChem BioAssay AID248 (DTP/NCI, 2004).
Where “and” joins values, the source holds several entries; their conditions need not be identical. Equal values may be shown once. Toxic doses and inconclusive results are not listed. Rule as the data show it: active = T/C of 150% or more; inactive = T/C below 125%.

Tested on: L1210 leukemia ip in BDF1 mice, survival T/C
Assay: NCI In Vivo Anticancer Drug Screen. Data for tumor model L1210 Leukemia (intraperitoneal) in B6D2F1 (BDF1) mice
Settings: endpoint: mean survival time, higher = longer survival
Outline: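 In this screen, tumor-bearing mice given compound are compared to those given vehicle, and their survival values are reported as a treated-to-control quotient.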

[1] = dose: 100.0 mg/kg/injection, schedule: Q04DX003 (ip), vehicle: saline with Tween-80
[2] = dose: 200.0 mg/kg/injection, schedule: Q04DX003 (ip), vehicle: saline with Tween-80
[3] = dose: 400.0 mg/kg/injection, schedule: Q04DX003 (ip), vehicle: saline with Tween-80
[4] = dose: 100.0 mg/kg/injection, schedule: Q01DX009 (ip), vehicle: Klucel (hydroxypropylcellulose) (HPC)
[5] = dose: 100.0 mg/kg/injection, schedule: Q04DX002 (ip), vehicle: Klucel (hydroxypropylcellulose) (HPC)
[6] = dose: 200.0 mg/kg/injection, schedule: Q01DX009 (ip), vehicle: Klucel (hydroxypropylcellulose) (HPC)
[7] = dose: 200.0 mg/kg/injection, schedule: Q04DX002 (ip), vehicle: Klucel (hydroxypropylcellulose) (HPC)
[8] = dose: 400.0 mg/kg/injection, schedule: Q01DX009 (ip), vehicle: Klucel (hydroxypropylcellulose) (HPC)
[9] = dose: 400.0 mg/kg/injection, schedule: Q04DX002 (ip), vehicle: Klucel (hydroxypropylcellulose) (HPC)
[10] = dose: 50.0 mg/kg/injection, schedule: Q01DX001 (ip), vehicle: saline
[11] = dose: 50.0 mg/kg/injection, schedule: Q04DX003 (ip), vehicle: saline with Tween-80
[12] = dose: 100.0 mg/kg/injection, schedule: Q01DX001 (ip), vehicle: saline
[13] = dose: 100.0 mg/kg/injection, schedule: Q01DX009 (ip), vehicle: saline with Tween-80
[14] = dose: 100.0 mg/kg/injection, schedule: Q01DX001 (ip), vehicle: carboxymethylcellulose (CMC)
[15] = dose: 200.0 mg/kg/injection, schedule: Q01DX001 (ip), vehicle: carboxymethylcellulose (CMC)
[16] = dose: 400.0 mg/kg/injection, schedule: Q01DX001 (ip), vehicle: carboxymethylcellulose (CMC)
[17] = dose: 200.0 mg/kg/injection, schedule: Q01DX001 (ip), vehicle: saline
[18] = dose: 100.0 mg/kg/injection, schedule: Q04DX003 (ip), vehicle: Klucel (hydroxypropylcellulose) (HPC)
[19] = dose: 200.0 mg/kg/injection, schedule: Q04DX003 (ip), vehicle: Klucel (hydroxypropylcellulose) (HPC)
[20] = dose: 400.0 mg/kg/injection, schedule: Q04DX003 (ip), vehicle: Klucel (hydroxypropylcellulose) (HPC)
[21] = dose: 400.0 mg/kg/injection, schedule: Q01DX001 (ip), vehicle: saline
[22] = dose: 100.0 mg/kg/injection, schedule: Q04DX003 (ip), vehicle: saline
[23] = dose: 100.0 mg/kg/injection, schedule: Q04DX002 (ip), vehicle: saline with Tween-80
[24] = dose: 200.0 mg/kg/injection, schedule: Q04DX002 (ip), vehicle: saline with Tween-80
[25] = dose: 400.0 mg/kg/injection, schedule: Q04DX002 (ip), vehicle: saline with Tween-80
[26] = dose: 75.0 mg/kg/injection, schedule: Q01DX001 (ip), vehicle: other
[27] = dose: 150.0 mg/kg/injection, schedule: Q01DX001 (ip), vehicle: other
[28] = dose: 300.0 mg/kg/injection, schedule: Q01DX001 (ip), vehicle: other

Measured: T/C

CC(=O)Oc1cc(C(c2ccccc2)c2ccccc2)ccc1N(C(C)=O)S(=O)(=O)c1ccccc1
inactive: [1] 92 % of control | [2] 88 % of control | [3] 92 % of control

CN(C)C(=S)S/C=C\C(=O)O
inactive: dose: 25.0 mg/kg/injection, schedule: Q04DX002 (ip), vehicle: Klucel (hydroxypropylcellulose) (HPC) 90 % of control | dose: 50.0 mg/kg/injection, schedule: Q04DX002 (ip), vehicle: Klucel (hydroxypropylcellulose) (HPC) 90 % of control | [4] 112 % of control | [5] 94 % of control | [6] 89 % of control | [7] 93 % of control and 97 % of control | [8] 99 % of control | [9] 109 % of control

O=C(NC(c1ccccc1)c1ccccc1)c1ccccc1
inactive: dose: 25.0 mg/kg/injection, schedule: Q01DX009 (ip), vehicle: saline with Tween-80 88 % of control | dose: 25.0 mg/kg/injection, schedule: Q04DX003 (ip), vehicle: saline with Tween-80 97 % of control | [10] 97 % of control | dose: 50.0 mg/kg/injection, schedule: Q01DX009 (ip), vehicle: saline with Tween-80 88 % of control | [11] 94 % of control | [12] 91 % of control | [13] 88 % of control | [1] 89 % of control

CCOC(=O)c1cc(C)nc(Cl)c1C#N
inactive: [14] 96 % of control | [15] 96 % of control | [16] 93 % of control

COc1c2c(cc3c1C1(O)Cc4ccc5c(c4C[N+]1(C)CC3)OCO5)OCO2 (centres undefined)
inactive: [12] 95 % of control | [17] 91 % of control

CS(=O)(=O)OCCC(COS(C)(=O)=O)S(=O)(=O)Cc1ccccc1 (centres undefined)
inactive: dose: 15.0 mg/kg/injection, schedule: Q01DX001 (ip), vehicle: saline 101 % of control | dose: 30.0 mg/kg/injection, schedule: Q01DX001 (ip), vehicle: saline 104 % of control

O=C(O)c1cc(I)cc(I)c1I
inactive: [5] 105 % of control | [7] 88 % of control | [9] 102 % of control

CCCCCCCCCCCCCCNC1=C(C)C(=O)C(NCCCCCCCCCCCCCC)=C(C)C1=O
inactive: [14] 98 % of control | [15] 93 % of control | [16] 89 % of control

O=C(CC(=O)c1cccc([N+](=O)[O-])c1)Nc1ccccc1Br
inactive: [18] 94 % of control | [19] 91 % of control | [20] 94 % of control

O=C(CCCC(=O)N/N=C/c1cc(Cl)ccc1[N+](=O)[O-])N/N=C\c1cc(Cl)ccc1[N+](=O)[O-]
inactive: [10] 98 % of control | [12] 90 % of control | [17] 95 % of control | [21] 98 % of control

O=C(O)C1CCCN1CCc1ccccc1 (centres undefined)
inactive: [22] 107 % of control | dose: 200.0 mg/kg/injection, schedule: Q04DX003 (ip), vehicle: saline 105 % of control | dose: 400.0 mg/kg/injection, schedule: Q04DX003 (ip), vehicle: saline 97 % of control

CCCNC(=O)Nc1ccc(OC)cc1Cl
inactive: [4] 93 % of control | [6] 93 % of control | [8] 93 % of control

COc1ccc(-c2c(C)nc(N)nc2OC)cc1
inactive: [23] 96 % of control | [24] 100 % of control | [25] 96 % of control

O=C1C2CCCC3CCCC(C(=O)N1NC1CCCCC1)C32 (centres undefined)
inactive: [23] 93 % of control | [24] 86 % of control

C=C(C)C1C/C(=N\O)C(C)/C(=N/O)C1 (centres undefined)
inactive: [23] 100 % of control | [24] 96 % of control | [25] 93 % of control

COc1ccc([PH+](c2ccc(OC)cc2)c2ccc(OC)cc2)cc1.COc1ccc([PH+](c2ccc(OC)cc2)c2ccc(OC)cc2)cc1.[Cl][Hg][Cl]
inactive: dose: 50.0 mg/kg/injection, schedule: Q01DX009 (ip), vehicle: Klucel (hydroxypropylcellulose) (HPC) 108 % of control | [4] 101 % of control | [6] 93 % of control

C/C=C/c1cc(OC)cc(C2(O)OC(=O)c3c(OC)cccc32)c1OC (centres undefined)
inactive: [1] 105 % of control | [2] 94 % of control | [3] 100 % of control

O=C1CC(C(=O)O)C(c2ccccc2F)O1 (centres undefined)
inactive: [18] 98 % of control | [19] 101 % of control | [20] 103 % of control

CC(=O)OC1C(SC(C)(C)C)C=CC(SC(C)(C)C)N1C(C)=O (centres undefined)
inactive: [4] 103 % of control | [6] 103 % of control | [8] 95 % of control

CSC(N)=Nc1ccccc1
inactive: dose: 87.5 mg/kg/injection, schedule: Q01DX009 (ip), vehicle: saline 96 % of control | dose: 175.0 mg/kg/injection, schedule: Q01DX009 (ip), vehicle: saline 100 % of control

O=C(CCl)c1c(O)cc(O)cc1O
inactive: [26] 106 % of control | [27] 106 % of control | [28] 92 % of control

Nc1nc(N)c(-c2ccc(Cl)cc2)c(COc2cccc(NC(=O)c3ccc([N+](=O)[O-])cc3)c2)n1
inactive: dose: 100.0 mg/kg/injection, schedule: Q01DX001 (ip), vehicle: Klucel (hydroxypropylcellulose) (HPC) 104 % of control | dose: 200.0 mg/kg/injection, schedule: Q01DX001 (ip), vehicle: Klucel (hydroxypropylcellulose) (HPC) 97 % of control | dose: 400.0 mg/kg/injection, schedule: Q01DX001 (ip), vehicle: Klucel (hydroxypropylcellulose) (HPC) 91 % of control

CCOC(=O)c1cnc(SC)nc1NCc1ccco1
inactive: [13] 95 % of control | [1] 100 % of control | dose: 200.0 mg/kg/injection, schedule: Q01DX009 (ip), vehicle: saline with Tween-80 97 % of control | [2] 97 % of control | dose: 400.0 mg/kg/injection, schedule: Q01DX009 (ip), vehicle: saline with Tween-80 106 % of control | [3] 92 % of control

Cc1cc(C)nc(NN=C2CC(C)(C)N(O)C(C)(C)C2)n1
inactive: dose: 25.0 mg/kg/injection, schedule: Q04DX003 (ip), vehicle: saline 96 % of control | dose: 50.0 mg/kg/injection, schedule: Q04DX003 (ip), vehicle: saline 98 % of control | [22] 102 % of control

O=C1NC2(CCCCC2)C(=O)N1CCN(CCO)CCO
inactive: dose: 50.0 mg/kg/injection, schedule: Q01DX009 (ip), vehicle: saline 106 % of control | dose: 100.0 mg/kg/injection, schedule: Q01DX009 (ip), vehicle: saline 109 % of control | dose: 200.0 mg/kg/injection, schedule: Q01DX009 (ip), vehicle: saline 93 % of control | dose: 400.0 mg/kg/injection, schedule: Q01DX009 (ip), vehicle: saline 91 % of control

NCc1nc2ccccc2[nH]1
inactive: [10] 101 % of control | [12] 103 % of control | [17] 95 % of control | [21] 95 % of control

COC(=O)c1n[nH]c(C)c1N=NN(C)C
inactive: dose: 75.0 mg/kg/injection, schedule: Q01DX001 (ip), vehicle: saline 119 % of control | dose: 150.0 mg/kg/injection, schedule: Q01DX001 (ip), vehicle: saline 123 % of control

Cc1nc2[nH]cnc(=S)c2[nH]1
inactive: dose: 100.0 mg/kg/injection, schedule: Q01DX001 (ip), vehicle: other 107 % of control | dose: 200.0 mg/kg/injection, schedule: Q01DX001 (ip), vehicle: other 103 % of control

OC(CI)C(O)CI (centres undefined)
inactive: [26] 104 % of control | [27] 106 % of control and 86 % of control | [28] 101 % of control

CN(C)/N=C/c1ccccc1C(=O)O
inactive: [11] 101 % of control | [1] 97 % of control | [2] 96 % of control | [3] 106 % of control

Cc1cc2nncn2c2ccccc12
inactive: [10] 103 % of control | [12] 101 % of control | [17] 101 % of control
